We go through 34 molecules from patent publication US8791139B2, “Anthranilic diamide derivatives” (Bayer Cropscience AG, priority 2010, dated 2014).

“And” between values parts separate entries of the source, which are not always exact repeats. Equal entries are not always repeated. Where two headings read alike, the source gives them in different places.

Data set [1] concerns caterpillars of the armyworm (Spodoptera frugiperda). The data set can be described thus: Spodoptera frugiperda test (SPODFR spray treatment). Format: in vivo. The following applies: 168 h; for pest or weed control at 500 g/ha / pest or weed control at 100 g/ha: read-out: activity (caterpillars killed); for inhibition at 100 g/ha: 7 d, comparison with prior art. Here is the method:
After 7 days, the effect in % is determined.

Data set [2] can be described thus: logP by HPLC on reversed-phase columns (C18), EEC Directive 79/831 Annex V.A8. Format: physicochemical. Here is the method: The logP values reported in the table above and in the Preparation Examples were determined in accordance with EEC Directive 79/831 Annex V.A8 by HPLC (High Performance Liquid Chromatography) on reversed-phase columns (C18), with the following methods:
The LC-MS determination in the acidic range is carried out at pH 2.7 using the mobile phases 0.1% aqueous formic acid and acetonitrile (contains 0.1% formic acid), linear gradient from 10% acetonitrile to 95% acetonitrile
Calibration was carried out using unbranched alkan-2-ones (having from 3 to 16 carbon atoms) with known logP values (the logP values were determined by the retention times using linear interpolation between two successive alkanones).

In data set [3] the test system is larvae of the mustard beetle (Phaedon cochleariae). The data set can be described thus: Phaedon test (PHAECO spray treatment). The following applies: 168 h; for pest or weed control at 500 g/ha / pest or weed control at 100 g/ha: read-out: activity (beetle larvae killed); for inhibition at 100 g/ha: read-out: % Activity, PHAECO.
The subject of data set [4] is green peach aphid (Myzus persicae). The data set can be described thus: Myzus test (MYZUPE spray treatment). The following applies: application rate 100 g/ha, after 6 days, Chinese cabbage leaf discs. It counts as in vivo.
Setting [5] is: application rate 100 g/ha, after 7 days.
The mark [6] stands for this setting: reversed-phase HPLC column (C18), pH 2.7, HPLC reversed-phase C18, acidic range pH 2.7, 0.1% aqueous formic acid/acetonitrile, table of compounds of formula (I), read-out: log P.
Where [7] appears, read: reversed-phase HPLC column (C18), pH 2.7, HPLC reversed-phase C18, acidic range pH 2.7, Preparation Examples (intermediates), read-out: logP.

As to `CNC(=O)c1cc(C#N)cc(C)c1NC(=O)c1cc(C(=O)c2nc(C(F)(F)F)cs2)nn1-c1ncccc1Cl` [Example 20], the pest or weed control at 500 g/ha in data set [1] and in data set [3] was 100% throughout. The molecule further gave a chromatographic logP in data set [2] (pH 2.7, log P) of 2.77.

In the case of `CNC(=O)c1cc(C#N)cc(C)c1NC(=O)c1cc(C(=O)c2ccc(C(F)(F)F)nc2)nn1-c1ncccc1Cl` [Example 18], the inhibition at 100 g/ha in data set [1] and in data set [3] was 100% throughout. In addition, in data set [2] (pH 2.7, log P), the chromatographic logP is 3.01. Moreover, in data set [3], the pest or weed control at 100 g/ha was 100%.

As for `Cc1cc(Cl)cc(C(=O)NC2CC2)c1NC(=O)c1cc(CN(Cc2cc(C(F)(F)F)cc(C(F)(F)F)c2)S(C)(=O)=O)nn1-c1ncccc1Cl` [Example 59], in data set [1] (setting [5]), the pest or weed control at 100 g/ha was 100%. Besides, the chromatographic logP in data set [2] (setting [6]) is 4.05.

In the case of `Cc1cc(Cl)cc(C(=O)NC(C)C)c1NC(=O)c1cc(CNS(=O)(=O)Cc2ccc(C(F)(F)F)cc2C(F)(F)F)nn1-c1ncccc1Cl` [Example 52], in data set [1] (setting [5]), the pest or weed control at 100 g/ha came to 83%. In data set [2] (setting [6]), the chromatographic logP is 3.92.

For the molecule `CNC(=O)c1cc(Cl)cc(C)c1NC(=O)c1cc(C#Cc2ccc(OC(F)(F)F)cc2)nn1-c1ncccc1Cl` [Example 10], the pest or weed control at 100 g/ha in data set [1] and in data set [3] was 100% throughout. The molecule further came in with a chromatographic logP in data set [2] (pH 2.7, log P) of 4.29.

On to `CNC(=O)c1cc(C#N)cc(C)c1NC(=O)c1cc(Nc2cc(C(F)(F)F)c(C(F)(F)F)cn2)nn1-c1ncccc1Cl` [Example 71], for which the pest or weed control at 100 g/ha in data set [1] and in data set [3] was 100% each time. This molecule displayed a chromatographic logP in data set [2] (pH 2.7, log P) of 3.5.

Take `Cc1cc(Cl)cc(C(=O)NC(C)C)c1NC(=O)c1cc(CN(C)S(=O)(=O)c2cc(C(F)(F)F)cc(C(F)(F)F)c2)nn1-c1ncccc1Cl` [Example 55]: in data set [1] (setting [5]), the pest or weed control at 100 g/ha was 100%. In data set [2] (setting [6]), the chromatographic logP is 4.5.

For the molecule `Cc1cc(Cl)cc(C(=O)NC(C)C)c1NC(=O)c1cc(CN(C)S(=O)(=O)Cc2cc(C(F)(F)F)cc(C(F)(F)F)c2)nn1-c1ncccc1Cl` [Example 56], the pest or weed control at 100 g/ha in data set [1] (setting [5]) is 100%. The chromatographic logP in data set [2] (setting [6]) stood at 4.37.

Regarding `CNC(=O)c1cc(Cl)cc(C)c1NC(=O)c1cc(CN(C=O)c2ccccc2NS(C)(=O)=O)nn1-c1ncccc1Cl` [Example 32], in data set [4], the “activity (aphids killed)” value was determined as 80%. Besides, the chromatographic logP in data set [2] (pH 2.7, log P) turned out to be 2.09.

In data set [2] (pH 2.7, log P), `CNC(=O)c1cc(C#N)cc(C)c1NC(=O)c1cc(C#Cc2ccc(OC(F)(F)F)cc2)nn1-c1ncccc1Cl` [Example 13] yielded a chromatographic logP of 3.88. Further, in data set [3], the pest or weed control at 100 g/ha is 100%.

In data set [2] (pH 2.7, log P), `Cc1cc(Br)cc(C(=O)NC(C)C)c1NC(=O)c1cc(C(=O)Nc2ccc(C(F)(F)F)cc2)nn1-c1ncccc1Cl` [Example 3] gave a chromatographic logP of 4.02. Further, in data set [3], the pest or weed control at 100 g/ha worked out at 100%.

Regarding `CNC(=O)c1cc(Cl)cc(C)c1NC(=O)c1cc(CN(C=O)c2ccc(Cl)cc2NS(C)(=O)=O)nn1-c1ncccc1Cl` [Example 33], in data set [4], the “activity (aphids killed)” value came out at 90%. Besides, in data set [1], the pest or weed control at 100 g/ha is 100%. Also, the chromatographic logP in data set [2] (pH 2.7, log P) came to 2.49.

Take `Cc1cc(C#N)cc(C(=O)NC(C)(C)C)c1NC(=O)c1cc(C(=O)c2nc(C(F)(F)F)cs2)nn1-c1ncccc1Cl` [Example 14]: the pest or weed control at 100 g/ha in data set [1] and in data set [3] was 100% in each case. Also, in data set [2] (pH 2.7, log P), the chromatographic logP was found to be 3.57.

Consider `CNC(=O)c1cc(C#N)cc(C)c1NC(=O)c1cc(CSc2ccc(C(F)(F)F)cn2)nn1-c1ncccc1Cl` [No. 1 known WO 2007/144100, reference compound], for which the inhibition at 100 g/ha in data set [1] and in data set [3] was 0% throughout.

Consider `Cc1cc(C#N)cc(C(=O)NC(C)(C)C)c1NC(=O)c1cc(C(=O)c2ccc(C(F)(F)F)nc2)nn1-c1ncccc1Cl` [Example 19], for which the pest or weed control at 500 g/ha in data set [1] and in data set [3] was 100% in each case. The molecule also had a chromatographic logP in data set [2] (pH 2.7, log P) of 3.85.

Consider `CCOc1ccc(C(=O)c2cc(C(=O)Nc3c(C)cc(C#N)cc3C(=O)NC)n(-c3ncccc3Cl)n2)cn1` [Example 17], for which the pest or weed control at 100 g/ha in data set [1] and in data set [3] was 100% in each case. This molecule came in with a chromatographic logP in data set [2] (pH 2.7, log P) of 2.99.

For `Cc1cc(Cl)cc(C(=O)NC(C)C)c1NC(=O)c1cc(CNS(=O)(=O)c2ccc(C(F)(F)F)cc2)nn1-c1ncccc1Cl` [Example 46], the pest or weed control at 100 g/ha in data set [1] is 83%. This molecule also displayed a chromatographic logP in data set [2] (pH 2.7, log P) of 3.47.

Consider `CNC(=O)c1cc(C#N)cc(C)c1NC(=O)c1cc(CN2CC(C(F)(F)F)C(c3ccc(Cl)cc3)=N2)nn1-c1ncccc1Cl` (stereo not drawn) [Example 68], for which the pest or weed control at 100 g/ha in data set [1] and in data set [3] was 100% in each case. Besides, in data set [2] (pH 2.7, log P), the chromatographic logP came out at 3.66.

In the case of `CNC(=O)c1cc(Cl)cc(C)c1NC(=O)c1cc(C2=NOC(c3cc(Cl)cc(Cl)c3)(C(F)(F)F)C2)nn1-c1ncccc1Cl` (stereo not drawn) [Example 1], the results for the pest or weed control at 100 g/ha in data set [1] and in data set [3] were 100% and 83%, respectively.

Consider `CNC(=O)c1cc(C#N)cc(C)c1NC(=O)c1cc(Oc2ccc(C(F)(F)F)cn2)nn1-c1ncccc1Cl` [Example 77], for which the pest or weed control at 100 g/ha in data set [1] and in data set [3] was 100% in each case. Also, the chromatographic logP in data set [2] (pH 2.7, log P) was found to be 2.89.

Turning to `Cc1cc(C#N)cc(C(=O)NC(C)C)c1NC(=O)c1cc(Oc2ccc(C(F)(F)F)cn2)nn1-c1ncccc1Cl` [Example 76], the pest or weed control at 100 g/ha in data set [1] and in data set [3] was 100% throughout. The same molecule returned a chromatographic logP in data set [2] (pH 2.7, log P) of 3.4.

On to `Cc1cc(C#N)cc(C(=O)NC(C)C)c1NC(=O)c1cc(Nc2cc(C(F)(F)F)cc(C(F)(F)F)c2)nn1-c1ncccc1Cl` [Example 73], for which the pest or weed control at 100 g/ha in data set [1] and in data set [3] was 100% each time.

As for `Cc1cc(C#N)cc(C(=O)NC(C)C)c1NC(=O)c1cc(Nc2ccc(C(F)(F)F)cc2)nn1-c1ncccc1Cl` [Example 74], the pest or weed control at 100 g/ha in data set [1] and in data set [3] was 100% each time. This molecule came in with a chromatographic logP in data set [2] (pH 2.7, log P) of 3.7.

`COC(=O)c1cc(Cc2ccc(C(F)(F)F)nc2)nn1-c1ncccc1Cl` [Example No. VII-c, methyl 1-(3-chloropyridin-2-yl)-3-{[6-(trifluoromethyl)pyridin-3-yl]methyl}-1H-pyrazole-5-carboxylate]: the chromatographic logP in data set [2] (setting [7]) was 2.86.

On to `CNC(=O)c1cc(C#N)cc(C)c1NC(=O)c1cc(/C=C/n2nnc(C(F)(F)F)n2)nn1-c1ncccc1Cl` [Example 64], for which the pest or weed control at 100 g/ha in data set [1] and in data set [3] was 100% in each case. In data set [2] (pH 2.7, log P), this molecule came in with a chromatographic logP of 3.17.

For `Cc1cc(C#N)cc(C(=O)NC(C)C)c1NC(=O)c1cc(Nc2ccc(C(F)(F)F)cn2)nn1-c1ncccc1Cl` [Example 67], the pest or weed control at 100 g/ha in data set [1] and in data set [3] was 100% each time. The same molecule displayed a chromatographic logP in data set [2] (pH 2.7, log P) of 3.31.

`Cc1cc(Cl)cc(C(=O)NC(C)C)c1NC(=O)c1cc(CNS(=O)(=O)c2ccc(Cl)cc2)nn1-c1ncccc1Cl` [Example 47] registered a chromatographic logP in data set [2] (pH 2.7, log P) of 3.25.

Consider `COC(=O)c1cc(C=O)nn1-c1ncccc1Cl` [Example No. VII-e, methyl 1-(3-chloropyridin-2-yl)-3-formyl-1H-pyrazole-5-carboxylate], for which, in data set [2] (setting [7]), the chromatographic logP was found to be 1.82.

As for `Cc1cc(Cl)cc(C(=O)NC(C)C)c1NC(=O)c1cc(C(=O)Nc2ccc(C(F)(F)F)cc2)nn1-c1ncccc1Cl` [Example 4], in data set [1], the pest or weed control at 100 g/ha turned out to be 83%. The molecule further returned a chromatographic logP in data set [2] (pH 2.7, log P) of 3.96.

Turning to `Cc1cc(C#N)cc(C(=O)NC(C)(C)C)c1NC(=O)c1cc(N2CCN(c3cc(C(F)(F)F)cc(C(F)(F)F)c3)C2=O)nn1-c1ncccc1Cl` [Example 25], the chromatographic logP in data set [2] (setting [6]) stood at 4.84.

`Cc1cc(Cl)cc(C(=O)NC(C)C)c1NC(=O)c1cc(CNS(=O)(=O)c2cccc(C(F)(F)F)c2)nn1-c1ncccc1Cl` [Example 48] displayed a chromatographic logP in data set [2] (pH 2.7, log P) of 3.43.

On to “1-(3-Chloropyridin-2-yl)-3-{(E)-2-[5-(trifluoromethyl)-2H-tetrazol-2-yl]vinyl}-1H-pyrazole-5-carboxylic acid/1-(3-chloropyridin-2-yl)-3-{(E)-2-[5-(trifluoromethyl)-1H-tetrazol-1-yl]vinyl}-1H-pyrazole-5-carboxylic acid [Example No. XIV]”, for which the log partition coefficient (logP) (in general, the decadic logarithm of the partition coefficient of the neutral form, usually between octanol and water) in data set [2] (HPLC reversed-phase C18, acidic range pH 2.7, Preparation Examples (intermediates)) is 2.79 and 2.86.

As to `CCOC(=O)c1cc(N2CCN(c3cc(C(F)(F)F)cc(C(F)(F)F)c3)C2=O)nn1-c1ncccc1Cl` [Example No. VII-b, ethyl 3-{3-[3,5-bis(trifluoromethyl)phenyl]-2-oxoimidazolidin-1-yl}-1-(3-chloropyridin-2-yl)-1H-pyrazole-5-carboxylate], the chromatographic logP in data set [2] (setting [7]) was determined as 4.82.

On to `CNC(=O)c1cc(Cl)cc(C)c1NC(=O)c1cc(CNS(=O)(=O)c2ccccc2Cl)nn1-c1ncccc1Cl` [Example 37], for which the chromatographic logP in data set [2] (pH 2.7, log P) is 2.58.
